Assay results from patent publication US10695334B2, “Heteroaromatic carboxamide derivatives as plasma kallikrein inhibitors” (Boehringer Ingelheim International GmbH, priority 2018, dated 2020).

molecular target: Human PKK (Homo sapiens (Human), UniProt P03952); experiment: Inhibition of PKK, endpoint assay (human PKK); format: biochemical; conditions: substrate H-Pro-Phe-Arg-AMC, 1 h room temperature
Protocol: Subsequently, PPACK II (Calbiochem) was added as a stop solution to achieve a final concentration of 1 μM and fluorescence was measured using an Envision Reader (PerkinElmer) with the wavelength excitation setting of 355 nm and the wavelength emission setting of 460 nm.

Human PKK, sequence (P03952 391-638): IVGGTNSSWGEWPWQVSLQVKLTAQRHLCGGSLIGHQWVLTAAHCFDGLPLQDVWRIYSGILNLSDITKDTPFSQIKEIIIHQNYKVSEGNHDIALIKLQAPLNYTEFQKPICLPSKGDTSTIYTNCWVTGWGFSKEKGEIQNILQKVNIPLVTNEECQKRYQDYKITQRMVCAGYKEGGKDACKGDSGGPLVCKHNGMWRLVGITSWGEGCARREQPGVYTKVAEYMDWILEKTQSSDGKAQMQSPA
Human PKK, sequence (P03952 20-390 partner): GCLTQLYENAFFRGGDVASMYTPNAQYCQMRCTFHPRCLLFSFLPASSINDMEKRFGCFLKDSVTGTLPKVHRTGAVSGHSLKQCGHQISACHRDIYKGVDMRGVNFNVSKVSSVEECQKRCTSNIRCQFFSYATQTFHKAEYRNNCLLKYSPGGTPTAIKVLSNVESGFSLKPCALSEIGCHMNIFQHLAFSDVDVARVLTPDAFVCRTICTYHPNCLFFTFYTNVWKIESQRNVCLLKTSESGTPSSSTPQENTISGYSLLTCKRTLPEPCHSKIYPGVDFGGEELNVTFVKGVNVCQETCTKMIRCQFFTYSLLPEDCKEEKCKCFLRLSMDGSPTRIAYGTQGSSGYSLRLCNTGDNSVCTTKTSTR

SMILES	IC50 [nM]
Cc1nc(N2CC3(C2)CC3(F)F)ccc1Cn1cc(C(=O)N[C@@H]2CCc3c2n[nH]c3C)cn1 [Example 51, 1-[(6-{1,1-Difluoro-5-azaspiro[2.3]hexan-5-yl}-2-methylpyridin-3-yl)methyl]-N-[(6R)-3-methyl-2H,4H,5H,6H-cyclopenta[c]pyrazol-6-yl]-1H-pyrazole-4-carboxamide]	25
COCc1nn(Cc2cnc(N3CC4CC4C3)nc2C)cc1C(=O)N[C@@H]1CCc2c(C)n[nH]c21 (stereo partly drawn) [Example 28, 1-[(2-{3-Azabicyclo[3.1.0]hexan-3-yl}-4-methyl-pyrimidin-5-yl)methyl]-3-(methoxymethyl)-N-[(6R)-3-methyl-1H,4H,5H,6H-cyclopenta[c]pyrazol-6-yl]-1H-pyrazole-4-carboxamide]	4
Cc1nc(N2C[C@@H]3[C@@H](CF)[C@@H]3C2)ccc1Cn1cc(C(=O)N[C@@H]2CCc3c2n[nH]c3C)cn1 [Example 95, 1-({6-[(1R,5S,6R)-6-(Fluoromethyl)-3-azabicyclo[3.1.0]hexan-3-yl]-2-methylpyridin-3-yl}methyl)-N-[(6R)-3-methyl-2H,4H,5H,6H-cyclopenta[c]pyrazol-6-yl]-1H-pyrazole-4-carboxamide]	4
Cc1nc(N2CC(C(C)C)C2)ccc1Cn1cc(C(=O)N[C@@H]2CCc3c2n[nH]c3C)cn1 [Example 70, N-[(6R)-3-Methyl-2H,4H,5H,6H-cyclopenta[c]pyrazol-6-yl]-1-({2-methyl-6-[3-(propan-2-yl)azetidin-1-yl]pyridin-3-yl}lmethyl)-1H-pyrazole-4-carboxamide]	13
Cc1nc(N2CC3CC3C2)ncc1Cn1cnc(C(=O)N[C@@H]2CCc3c2n[nH]c3C)c1 (stereo partly drawn) [Example 91, 1-[(2-{3-Azabicyclo[3.1.0]hexan-3-yl}-4-methyl-pyrimidin-5-yl)methyl]-N-[(6R)-3-methyl-2H,4H,5H,6H-cyclopenta[c]pyrazol-6-yl]-1H-imidazole-4-carboxamide]	3
Cc1nc(N2CC3(CCOCC3)C2)ccc1Cn1cc(C(=O)N[C@@H]2CCc3c2n[nH]c3C)cn1 [Example 63, N-[(6R)-3-Methyl-2H,4H,5H,6H-cyclopenta[c]pyrazol-6-yl]-1-[(2-methyl-6-{7-oxa-2-azaspiro[3.5]nonan-2-yl]pyridin-3-yl)methyl]-1H-pyrazole-4-carboxamide]	85
Cc1nc(N2CC3CC(C2)C3O)ccc1Cn1cc(C(=O)N[C@@H]2CCc3c2n[nH]c3C)cn1 (stereo partly drawn) [Example 39, 1-[(6-{6-Hydroxy-3-azabicyclo[3.1.1]heptan-3-yl]-2-methylpyridin-3-yl)methyl]-N-[(6R)-3-methyl-2H,4H,5H,6H-cyclopenta[c]pyrazol-6-yl]-1H-pyrazole-4-carboxamide]	9
COC1C2CC1CN(c1ccc(Cn3cc(C(=O)N[C@@H]4CCc5c4n[nH]c5C)cn3)c(C)n1)C2 (stereo partly drawn) [Example 53, 1-[(6-{6-methoxy-3-azabicyclo[3.1.1]heptan-3-yl}-2-methylpyridin-3-yl)methyI]-N-[(6R)-3-methyl-2H,4H,5H,6H-cyclopenta[c]pyrazol-6-yl]-1H-pyrazole-4-carboxamide]	9
COCc1nn(Cc2cnc(N3CC4(CC4)C3)nc2C)cc1C(=O)N[C@@H]1CCc2c(C)n[nH]c21 [Example 31, 1-[(2-{5-Azaspiro[2.3]hexan-5-yl}-4-methyl-pyrimidin-5-yl)methyl]-3-(methoxymethyl)-N-[(6R)-3-methyl-1H,4H,5H,6H-cyclopenta[c]pyrazol-6-yl]-1H-pyrazole-4-carboxamide]	10
Cc1nc(N2CC3CC3C2)ccc1Cn1ncc(C(=O)N[C@@H]2CCc3c(C)n[nH]c32)n1 (stereo partly drawn) [Example 10, 2-[(6-{3-Azabicyclo[3.1.0]hexan-3-yl}-2-methylpyridin-3-yl)methyl]-N-[(6R)-3-methyl-1H,4H,5H,6H-cyclopenta[c]pyrazol-6-yl]-2H-1,2,3-triazole-4-carboxamide]	26
Cc1nc(N2CC3(CCOC3)C2)ccc1Cn1cc(C(=O)N[C@@H]2CCc3c2n[nH]c3C)cn1 [Example 40, N-[(6R)-3-Methyl-2H,4H,5H,6H-cyclopenta[c]pyrazol-6-yl]-1-[(2-methyl-6-{6-oxa-2-azaspiro[3.4]octan-2-yl]pyridin-3-yl)methyl]-1H-pyrazole-4-carboxamide]	137
Cc1nc(N2C[C@H]3COC[C@H]3C2)ccc1Cn1cc(C(=O)N[C@@H]2CCc3c2n[nH]c3C)cn1 [Example 72, 1-({6-[(3aR,6aS)-Hexahydro-1H-furo[3,4-c]pyrrol-5-yl]-2-methylpyridin-3-yl}methyl)-N-[(6R)-3-methyl-2H,4H,5H,6H-cyclopenta[c]pyrazol-6-yl]-1H-pyrazole-4-carboxamide]	36
Cc1nc(N2CC3CCCC3C2)ccc1Cn1cc(C(=O)N[C@@H]2CCc3c2n[nH]c3C)cn1 (stereo partly drawn) [Example 62, N-[(6R)-3-Methyl-2H,4H,5H,6H-cyclopenta[c]pyrazol-6-yl]-1-[(2-methyl-6-{octahydrocyclopenta[c]pyrrol-2-yl}pyridin-3-yl)methyl]-1H-pyrazole-4-carboxamide]	7
Cc1nc(N2CC3C(C2)C3(F)F)ccc1Cn1cc(C(=O)N[C@@H]2CCc3c(C)n[nH]c32)c(C)n1 (stereo partly drawn) [Example 18, 1-[(6-{6,6-Difluoro-3-azabicyclo[3.1.0]hexan-3-yl}-2-methylpyridin-3-yl)methyl]-3-methyl-3-methyl-N-[(6R)-3-methyl-1H,4H,5H,6H-cyclopenta[c]pyrazol-6-yl]-1H-pyrazole-4-carboxamide]	0.9
Cc1nc(N2CCC3(C2)CC3(F)F)ccc1Cn1cc(C(=O)N[C@@H]2CCc3c2n[nH]c3C)cn1 (stereo partly drawn) [Example 78, 1-[(6-{1,1-Difluoro-5-azaspiro[2.4]heptan-5-yl}-2-methylpyridin-3-yl)methyl]-N-[(6R)-3-methyl-2H,4H,5H,6H-cyclopenta[c]pyrazol-6-yl]-1H-pyrazole-4-carboxamide]	9
Cc1nc(N2CC3CC3C2)ccc1Cn1cc(C(=O)N[C@H]2CCc3c(C)n[nH]c32)cn1 (stereo partly drawn) [Example 2, 1-[(6-{3-Azabicyclo[3.1.0]hexan-3-yl}-2-methylpyridin-3-yl)methyl]-N-[(6S)-3-methyl-1H,4H,5H,6H-cyclopenta[c]pyrazol-6-yl]-1H-pyrazole-4-carboxamide]	32

Other lines, results leading:

IC50 [nM]	SMILES
19	Cc1nc(N2C[C@@H]3CC(F)(F)C[C@@H]3C2)ccc1Cn1cc(C(=O)N[C@@H]2CCc3c2n[nH]c3C)cn1 [Example 75, 1-({6-[(3aR,6aS)-5,5-Difluoro-octahydrocyclopenta[c]pyrrol-2-yl]-2-methylpyridin-3-yl}-methyl)-N-[(6R)-3-methyl-2H,4H,5H,6H-cyclopenta[c]pyrazol-6-yl]-1H-pyrazole-4-carboxamide]
4	Cc1nc(N2CC3CCC3C2)ccc1Cn1cc(C(=O)N[C@@H]2CCc3c2n[nH]c3C)cn1 (stereo partly drawn) [Example 68, 1-[(6-{3-Azabicyclo[3.2.0]heptan-3-yl}-2-methylpyridin-3-yl)methyl]-N-[(6R)-3-methyl-2H,4H,5H,6H-cyclopenta[c]pyrazol-6-yl]-1H-pyrazole-4-carboxamide]
51	Cc1nc(N2CCC3C(CC2)C3(F)F)ccc1Cn1cc(C(=O)N[C@@H]2CCc3c2n[nH]c3C)cn1 (stereo partly drawn) [Example 66, 1-[(6-{8,8-Difluoro-4-azabicyclo[5.1.0]octan-4-yl]-2-methylpyridin-3-yl)methyl]-N-[(6R)-3-methyl-2H,4H,5H,6H-cyclopenta[c]pyrazol-6-yl]-1H-pyrazole-4-carboxamide]
8	Cc1nc(N2C[C@@H]3CNC(=O)[C@@H]3C2)ccc1Cn1cc(C(=O)N[C@@H]2CCc3c2n[nH]c3C)cn1 [Example 50, 1-({6-[(3aS,6aS)-4-Oxo-octahydropyrrolo[3,4-c]pyrrol-2-yl]-2-methylpyridin-3-yl}methyl)-N-[(6R)-3-methyl-2H,4H,5H,6H-cyclopenta[c]pyrazol-6-yl]-1H-pyrazole-4-carboxamide]
41	Cc1nc(N2CC[C@](C)(O)C2)ccc1Cn1cc(C(=O)N[C@@H]2CCc3c2n[nH]c3C)cn1 [Example 83, 1-({6-[(3S)-3-Hydroxy-3-methylpyrrolidin-1-yl]-2-methylpyridin-3-yl}methyl)-N-[(6R)-3-methyl-2H,4H,5H,6H-cyclopenta[c]pyrazol-6-yl]-1H-pyrazole-4-carboxamide]
17	Cc1nc(N2C[C@@H]3[C@@H](O)[C@@H]3C2)ccc1Cn1cc(C(=O)N[C@@H]2CCc3c2n[nH]c3C)cn1 [Example 59, 1-({6-[(1R,5S,6R)-6-Hydroxy-3-azabicyclo[3.1.0]hexan-3-yl]-2-methylpyridin-3-yl}methyl)-N-[(6R)-3-methyl-2H,4H,5H,6H-cyclopenta[c]pyrazol-6-yl]-1H-pyrazole-4-carboxamide]
23	Cc1nc(N2CC3COCC(C3)C2)ccc1Cn1cc(C(=O)N[C@@H]2CCc3c2n[nH]c3C)cn1 [Example 43, N-[(6R)-3-Methyl-2H,4H,5H,6H-cyclopenta[c]pyrazol-6-yl]-1-[(2-methyl-6-{3-oxa-7-azabicyclo[3.3.1]nonan-7-yl]pyridin-3-yl)methyl]-1H-pyrazole-4-carboxamide]
2	Cc1nc(N2CC3CC3C2)ccc1Cn1cc(C(=O)N[C@@H]2CCc3c(C)n[nH]c32)c(-c2cnn(C)c2)n1 (stereo partly drawn) [Example 32, 1-[(6-{3-Azabicyclo[3.1.0]hexan-3-yl}-2-methyl-pyridin-3-yl)methyl]-1′-methyl-N-[(6R)-3-methyl-1H,4H,5H,6H-cyclopenta[c]pyrazol-6-yl]-1H,1′H-[3,4′-bipyrazole]-4-carboxamide]
6	CCC1(C)CN(c2ccc(Cn3cc(C(=O)N[C@@H]4CCc5c4n[nH]c5C)cn3)c(C)n2)C1 [Example 42, 1-{[6-(3-Ethyl-3-methylazetidin-1-yl)-2-methylpyridin-3-yl]methyl}-N-[(6R)-3-methyl-2H,4H,5H,6H-cyclopenta[c]pyrazol-6-yl]-1H-pyrazole-4-carboxamide]
5	Cc1nc(N2CC(C)C2)ccc1Cn1cc(C(=O)N[C@@H]2CCc3c2n[nH]c3C)cn1 [Example 61, N-[(6R)-3-Methyl-2H,4H,5H,6H-cyclopenta[c]pyrazol-6-yl]-1-{[2-methyl-6-(3-methylazetidin-1-yl)pyridin-3-yl]methyl}-1H-pyrazole-4-carboxamide]
